Results taken from patent publication US20100130945A1, “TREATMENT OF TISSUE VIA APPLICATION OF MAGNETIC FIELD” (priority 2006, published 2010).

Tested on: isolated cardiac myocytes
Experiment: Ca2+ transients (indo-1 fluorescence ratio) in isolated cardiac myocytes in culture, with drug and 16 Hz alternating magnetic field
Type: cell-based, rat
Method: Cardiac myocytes were extracted in order to study intracellular free calcium ([Ca^2+]i) shifts as a result of exposure to alternating magnetic field. This was estimated from indo-1 fluorescence using the ratio method. […] The hearts were minced and then gently agitated in a solution of proteolytic enzymes, RDB. The RDB was diluted 1:100 in Ca^2+ and Mg^2+ free PBS at 25° C. for a few cycles of 10 minutes each, Dulbecco's modified Eagle's medium (DMEM) supplemented with inactivated 10% horse serum (Biological Industries, Kibbutz Beit Haemek, Israel), and 0.5% chick embryo extract was added to the supernatant suspensions containing dissociated cells. The mixture was centrifuged at 300 g for 5 minutes. The supernatant phase was discarded and the cells were resuspended in the same medium. The suspensions of the cells were diluted to 1.0×10^6 cells/ml and were placed in 35-mm plastic culture dishes on collagen/gelatin coated cover glasses. The culture was incubated in a humidified atmosphere of 5% CO2, 95% air at 37° C. All experiments were performed at day 4 in culture. In a second set of experiments the specificity of the myocyte ion channels (KATP) was tested by inducing exposure alternating magnetic field of 16 Hz, that were delivered for 10 minutes of base line (n=10). Following baseline recording, the channels were blocked by the addition to the dish 5 μM of Glibenclamide and alternating magnetic field was delivered for an additional 20 minutes. In the third setup of the experiment the amount of 5 μM of Glibenclamide was primarily added (n=10), to be followed by exposure to alternating magnetic field of 20 min. In the fourth phase of the experimental setup 3 μM of Nicorandil, a potassium channel opener (KCO) were added (n=10), following 10 minutes, alternating magnetic field was exposure was introduced for 20 minutes. In the fifth phase of the experiment alternating magnetic field was applied for 20 minutes followed by introduction of 3 μM of Nicorandil (n=5). Intracellular free calcium concentration [Ca^2+], was estimated from indo-1 fluorescence using the ratio method previously described before by Grynkiewicz et al (1985). Following incubation, the cells were rinsed twice with glucose enriched PBS and transferred to a chamber on the stage of a Zeiss inverted epifluorescent microscope. Indo-1-AM was excited at 355 nm and the emitted light was then split by a dichroic mirror to two photomultipliers, with input filters at 405 and 495 nm. The fluorescence ratio of 405/495 nm, which is proportional to [Ca2+] was fed into a computer program. The time integral of Ca^2+ Influx was determined as area under the curve via a program, which gives the integral during any specified time window. From this value the baseline offset, measured at the systolic and diastolic phase, were subtracted. Baseline data from calcium transients were normalized to 100 percent and all values were presented as percent change from baseline. Mean and SD were calculated. A P≦0.05 was considered statistically significant.

Q: Which results are given for O=C(NCCO[N+](=O)[O-])c1cccnc1 [nicorandil]?
A: change of amplitude of Ca2+ transients (narrowing) with nicorandil (3 μM Nicorandil added, before magnetic field, percent change from baseline, FIG. 9B): −58%±7%; change of amplitude of Ca2+ transients (narrowing) with nicorandil following 20 minutes of alternating magnetic field (3 μM Nicorandil then 20 min field of 16 Hz, 80 nT, n=4, FIG. 9C): −63%±3%; combination of magnetic field exposure and KCO administration (nicorandil plus alternating magnetic field, 15.95 Hz, FIGS. 9A-C): synergistic effect

Q: COc1ccc(Cl)cc1C(=O)NCCc1ccc(S(=O)(=O)NC(=O)NC2CCCCC2)cc1 [glibenclamide] was tested. Which “change of amplitude of Ca2+ transients (widening) with glibenclamide” value (5 μM Glibenclamide added, before magnetic field, percent change from baseline, n=10, FIG. 8B) did it give?
A: +30%±9%

Q: What about the “change of amplitude of Ca2+ transients (narrowing) with glibenclamide following 20 minutes of alternating magnetic field” value (5 μM Glibenclamide then 20 min field of 16 Hz, 80 nT, n=10, FIG. 8C) of the same molecule?
A: −24%±6%

Q: What about the “effect on calcium ions efflux from myocytes in cultures following exposure to 16 Hz magnetic field” value (low intensities of 16 Hz magnetic field, KATP channel blocker) of the same molecule?
A: counteracting effect
